# Data published in publication doi:10.1101/2025.05.02.651913 (bioRxiv, 2025).
# Structures can show the parent of a compound that is named as a salt.
# System: MPXV strain hMPXV/USA/MA001/2022 (Lineage B.1, Clade IIb)
# Format: cell-based, Mpox virus (MPXV)
row,Compound,Duplicate of Duplicate of Hits: No CPE
1,"Cc1c[nH]c2nc(Nc3ccc(N4CCN(C)CC4)c(F)c3)nc(-c3cccc(CC#N)c3)c12 [NKIL-SGI-7079, SGI-7079]",1
2,"O=C(c1ccc(F)c(F)c1Nc1ccc(I)cc1F)N1CC(O)([C@@H]2CCCCN2)C1 [NKIL-Cobimetinib (GDC-0973, RG7420), Cobimetinib]",1
3,"O=C1Nc2ccc3ncsc3c2/C1=C/c1cnc[nH]1 [MC-PKR-IN-C16, PKR-IN-C16]",1
4,"C=CC(=O)Nc1cc(Nc2nccc(-c3cn(C)c4ccccc34)n2)c(OC)cc1OCCN(C)C [MC-Rezivertinib, Rezivertinib]",1
5,"O=C(N/N=C/c1c(O)ccc2ccccc12)c1cc(-c2ccc3ccccc3c2)n[nH]1 [MC-SKI-I, SKI-I]",1
6,"Nc1ccc(-c2ccc3ncc4ccc(=O)n(-c5cccc(C(F)(F)F)c5)c4c3c2)cn1 [NKIL-Torin 2, Torin 2]",1
7,Gilmelisib [MC-Gilmelisib],1
8,"CCOc1cc2ncc(C#N)c(Nc3ccc(OCc4ccccn4)c(Cl)c3)c2cc1NC(=O)/C=C/CN(C)C [MC-Neratinib, Neratinib]",1
9,"N[C@H]1CC[C@H](Nc2nc(Nc3ccc(C(=O)N4CCCCC4)cc3)c3ncn(-c4cccc(F)c4)c3n2)CC1 [MC-Purfalcamine, Purfalcamine]",1
10,"C=CC(=O)Nc1cccc(Oc2nc(Nc3ccc(N4CCN(C)CC4)cc3OC)ncc2Cl)c1 [NKIL-WZ4002, WZ4002]",1
11,"C=CC(=O)Nc1cc(Nc2nccc(-c3c[nH]c4ccccc34)n2)c(OC)cc1N(C)CCN(C)C [MC-AZ-5104, AZ-5104]",1
12,"C#Cc1cccc(Nc2ncnc3cc(OCCOC)c(OCCOC)cc23)c1.Cl [MC-Erlotinib (Hydrochloride), Erlotinib (Hydrochloride)]",1
13,"C=CC(=O)Nc1cc2c(Nc3ccc(F)c(Cl)c3)ncnc2cc1C#CC(C)(C)N1CCN(C)CC1 [MC-AV-412 (free base), AV-412 (free base)]",1
14,"O=C(Nc1ccncc1)Nc1ccc(-c2nc(N3CCOCC3)nc(N3C4CCC3COC4)n2)cc1 [MC-PKI-179 (hydrochloride), PKI-179 (hydrochloride)]",1
15,"C=CC(=O)Nc1cccc(-c2c(-c3ccccc3)oc3ncnc(N[C@H](CO)c4ccccc4)c23)c1 [MC-EGFR-IN-9, EGFR-IN-9]",1
16,"COc1cc(Nc2c(C#N)cnc3cc(OCCCN4CCN(C)CC4)c(OC)cc23)c(Cl)cc1Cl [LOPAC-Bosutinib, Bosutinib]",1
17,"COc1cc(F)c(F)c(Nc2ccc(I)cc2F)c1NS(=O)(=O)C1(C[C@H](O)CO)CC1 [NKIL-Refametinib (RDEA119, Bay 86-9766), Refametinib]",1
18,"COc1ccc(N(C(=O)Oc2cc(C(=O)Nc3cccc(C(F)(F)F)c3)ccc2C)c2ccnc(Nc3ccc(N4CCN(C)CC4)cc3)n2)c(OC)c1 [MC-WH-4-025, WH-4-025]",1
19,"COc1cc2ncnc(Nc3cccc(Br)c3)c2cc1OC [MC-PD153035, PD153035]",1
20,"CCN1CCC(Nc2ccc3c(c2)/C(=C(\c2cccc(F)c2)c2ncc(C)[nH]2)C(=O)N3)CC1 [MC-Tyrosine kinase-IN-1, Tyrosine kinase-IN-1]",1

row,Compound,Duplicate of Duplicate of Hits: No CPE
1,"O=C(NC[C@H](O)CO)c1ccncc1Nc1ccc(I)cc1F [NKIL-Pimasertib (AS-703026), Pimasertib]",1
2,"C#Cc1cccc(Nc2ncnc3cc(OCCOC)c(OCCO)cc23)c1.Cl [MC-Desmethyl Erlotinib, Desmethyl Erlotinib]",1
3,"C=CC(=O)Nc1cc2c(Nc3ccc(OCc4ccccn4)c(Cl)c3)ncnc2cc1OCCN1CCOCC1 [MC-Tuxobertinib, Tuxobertinib]",1
4,"C=CC(=O)Nc1cccc(-n2c(=O)cc(C)c3cnc(Nc4ccc(OCCN(C)C)cc4OC)nc32)c1.O=C(O)C(F)(F)F [MC-EGFR-IN-1 (TFA), EGFR-IN-1 (TFA)]",1
5,"O=C(Nc1ccc2[nH]nc(-c3ccncc3)c2c1)[C@@H]1CCN(CC(=O)N2CCN(c3ccc(-c4ncccn4)cc3)CC2)C1 [MC-SCH772984, SCH772984]",1
6,ZX-29 [MC-ZX-29],1
7,"C=CC(=O)Nc1cc(Nc2nccc(-c3cn(CC(F)(F)F)c4ccccc34)n2)c(OC)cc1N(C)CCN(C)C [MC-Befotertinib, Befotertinib]",1
8,"O=C(c1ccc(F)c(F)c1Nc1ccc(I)cc1F)N1CC(O)([C@@H]2CCCCN2)C1 (racemic) [MC-Cobimetinib (racemate), Cobimetinib (racemate)]",1
9,FGFR1/DDR2 inhibitor 1 [MC-FGFR1/DDR2 inhibitor 1],1
10,"CCOc1cc2ncc(C#N)c(Nc3ccc(OCc4ccccn4)c(Cl)c3)c2cc1NC(=O)/C=C/CN(C)C.O=C(O)/C=C\C(=O)O [MC-Neratinib (maleate), Neratinib (maleate)]",1
11,"Cc1cc(C(=O)NOCCO)c(Nc2ccc(I)cc2F)n(C)c1=O [NKIL-AZD8330, AZD8330]",1
12,"C=CC(=O)Nc1cc(Nc2nccc(-c3c4n(c5ccccc35)CCCC4)n2)c(OC)cc1N(C)CCN(C)C [MC-Oritinib, Oritinib]",1
13,"C=CC(=O)N[C@@H]1CN(c2nc(Nc3cn(C)nc3OC)c3ncn(C)c3n2)C[C@H]1F [MC-Mavelertinib, Mavelertinib]",1
14,"CN(C)C/C=C/C(=O)Nc1cc2c(Nc3ccc(Cl)c(Br)c3)ncnc2cn1 [MC-Tarlox-TKI, Tarlox-TKI]",1
15,"C=CC(=O)N1C[C@H](COc2nc(Nc3cnn(C)c3)nc3[nH]cc(Cl)c23)[C@@H](OC)C1 [MC-PF-06459988, PF-06459988]",1
16,"O=C1Nc2cc3[nH]nc(-c4ccncc4)c3cc2CN1Cc1ccccc1 [MC-KO-947, KO-947]",1
17,"Cc1ccc(C(=O)Nc2ccc(CN3CCN(C)CC3)c(C(F)(F)F)c2)cc1C#Cc1cnc2cccnn12.Cl [MC-Ponatinib (hydrochloride), Ponatinib (hydrochloride)]",1
18,"CNC(=O)c1ccccc1Nc1cc(Nc2ccc(N3CCN(CC(=O)N[C@H](C(=O)N4C[C@H](O)C[C@H]4C(=O)N[C@@H](C)c4ccc(-c5scnc5C)cc4)C(C)(C)C)CC3)cc2OC)ncc1C(F)(F)F [MC-GSK215, GSK215]",1
19,"C=CC(=O)N1CCC[C@H](n2c(=O)n(-c3ccc(Oc4ccccc4)cc3)c3c(N)ncnc32)C1 [MC-ONO-4059 (analog), ONO-4059 (analog)]",1
20,"COc1cc2ncnc(Nc3ccc(F)c(Cl)c3)c2cc1NC(=O)/C=C/CN1CCCCC1 [NKIL-Dacomitinib (PF299804, PF299), Dacomitinib]",1

row,Compound,Duplicate of Duplicate of Hits: No CPE
1,"O=C(NOCC(O)CO)c1cc(Br)c(F)c(F)c1Nc1ccc(I)cc1F (centres unmarked) [NKIL-PD318088, PD318088]",1
2,"CCN1CCN(Cc2ccc(NC(=O)c3ccc(C)c(/C=C/c4cnc5[nH]ccc5c4OC)c3)cc2C(F)(F)F)CC1 [MC-HG6-64-1, HG6-64-1]",1
3,"C=CC(=O)Nc1cc(Nc2nccc(-n3cc(CN(C)C)c(-c4ccccc4)n3)n2)c(OC)cc1N1CCOCC1 [MC-Lazertinib, Lazertinib]",1
4,"C=CC(=O)Nc1cc(Nc2nccc(-c3cn(C4CC4)c4ccccc34)n2)c(OC)cc1N(C)CCN(C)C [MC-Almonertinib, Almonertinib]",1
5,"C=CC(=O)Nc1cccc(Nc2nc(Nc3ccc(NC4CN(CCF)C4)cc3OC)ncc2C(F)(F)F)c1 [NKIL-CNX-2006, CNX-2006]",1
6,"C=CC(=O)Nc1cc2c(Nc3ccc(F)c(Cl)c3)ncnc2cc1OC [MC-PF-6274484, PF-6274484]",1
7,KIRA-7 [MC-KIRA-7],1
8,"C=CC(=O)Nc1cc(Nc2nccc(-c3cn(C)c4ccccc34)n2)c(OC)cc1N(C)CCN(C)C.CS(=O)(=O)O [MC-Osimertinib (mesylate), Osimertinib (mesylate)]",1
9,"CNS(=O)(=O)Nc1nccc(Cc2c(C)c3ccc(Oc4ncccn4)cc3oc2=O)c1F [MC-Avutometinib, Avutometinib]",1
10,"COc1cc2ncnc(Nc3ccc(F)c(Cl)c3)c2cc1OCCN1CC2(CC2)C2(C1)OCCO2 [MC-Simotinib, Simotinib]",1
11,"CCOc1cc2ncc(C#N)c(Nc3ccc(OCc4cccc(F)c4)c(Cl)c3)c2cc1NC(=O)/C=C/CN(C)C [MC-HKI-357, HKI-357]",1
12,(S)-Sunvozertinib [MC-(S)-Sunvozertinib],1
13,"COc1cc2ncnc(Nc3ccc(F)c(Cl)c3)c2cc1OCCCN1C[C@@H]2OCCO[C@@H]2C1.CS(=O)(=O)O.CS(=O)(=O)O.O [MC-Larotinib (mesylate hydrate), Larotinib (mesylate hydrate)]",1
14,"C=CC(=O)Nc1cc(Nc2ncc(C(=O)OC(C)C)c(-c3cn(C)c4ccccc34)n2)c(OC)cc1N(C)CCN(C)C [MC-Mobocertinib, Mobocertinib]",1
15,"CC#CC(=O)Nc1ccc2ncnc(Nc3cccc(Br)c3)c2c1 [MC-CL-387785, CL-387785]",1
16,Afatinib impurity 11 [MC-Afatinib impurity 11],1
17,"CNC(=O)CN1CCC(Oc2cc3c(Nc4cccc(Cl)c4F)ncnc3cc2OC)CC1 [NKIL-AZD8931 (Sapitinib), Sapitinib]",1
18,"CN(C)C/C=C/C(=O)Nc1cc2c(Nc3ccc(F)c(Cl)c3)ncnc2cc1OC(F)F [MC-Mefatinib (free base), Mefatinib (free base)]",1
19,"COc1cc2ncnc(Nc3cccc(Cl)c3)c2cc1OC [LOPAC-Tyrphostin AG 1478, Tyrphostin AG 1478]",1
